This note sets out measurements from patent US20230406849A1, “KRAS INHIBITORS FOR TREATMENT OF CANCERS” (TYLIGAND BIOSCIENCE (SHANGHAI) LIMITED, priority 2020, published 2023).

By inhibition is commonly meant the drop in the measured response relative to a control, in per cent.

Structures are written as SMILES. Where two headings read alike, the source gives them in different places.

Holding throughout (assay): CYP inhibition in human liver microsomes
What all share (format): in vitro ADME

One series has as its target T1, CYP1A2 (Homo sapiens, UniProt P05177).
T1 construct: Human liver microsomes (Corning, Cat #452161); tissue Corning 452161; host or cells: human liver microsomes
T1 sequence (P05177 1-516): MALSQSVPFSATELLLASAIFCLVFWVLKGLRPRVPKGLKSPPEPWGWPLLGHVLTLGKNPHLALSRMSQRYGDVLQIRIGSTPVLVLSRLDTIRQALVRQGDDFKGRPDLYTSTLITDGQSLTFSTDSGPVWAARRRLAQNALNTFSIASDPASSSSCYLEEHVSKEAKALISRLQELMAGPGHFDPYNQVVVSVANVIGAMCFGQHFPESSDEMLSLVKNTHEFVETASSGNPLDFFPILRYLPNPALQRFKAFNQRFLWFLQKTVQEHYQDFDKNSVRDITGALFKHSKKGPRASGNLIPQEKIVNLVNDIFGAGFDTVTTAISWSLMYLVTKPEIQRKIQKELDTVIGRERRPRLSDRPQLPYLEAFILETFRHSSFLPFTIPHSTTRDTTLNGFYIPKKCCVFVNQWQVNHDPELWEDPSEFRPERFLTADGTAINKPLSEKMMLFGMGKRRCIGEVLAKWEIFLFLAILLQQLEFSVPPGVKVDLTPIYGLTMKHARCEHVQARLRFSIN
Particulars: pH 7.4, read-out: CYP inhibition rate (%) 1A2. From the text: (§1) The inhibitory effect of the compounds of the present disclosure on the cytochrome P450 enzyme system was investigated in this assay.
(§2) [Test materials]: Human liver microsomes (Corning, Cat #452161); Reduced nicotinamide adenine dinucleotide phosphate (NADPH, MCE, Cat #HY-F0003/CS-4998); Phenacetin, Diclofenac, α-naphthoflavone, Omeprazole and Ketoconazole were purchased from TCI; S-Mephenytoin and testosterone were purchased from CAYMAN; Midazolam was purchased from Bioreclamation IVT; Quinidine was purchased from Damas-beta; Sulfaphenazole was purchased from MCE; Bufuralol was purchased from TRC.
(§3) [Experimental procedure]: Preparation of 0.1M potassium phosphate buffer (K-buffer): 100 mM potassium phosphate buffer (K-buffer) was prepared with potassium dihydrogen phosphate and dipotassium hydrogen phosphate, and adjusted to pH 7.4.
(§4) Preparation of 400× test compound and reference inhibitor solutions: 8 μL of 10 mM stock solution of the test compounds was mixed with 12 μL of acetonitrile. Preparation of inhibitor cocktail solution for CYP1A2, CYP2C9 and CYP2D6: […] of 1 mM α-naphthoflavone, 10 µL of 40 mM Sulfaphenazole, 10 μL of 10 mM Quinidine and 8 μL DMSO were mixed. Preparation of inhibitor cocktail solution for CYP3A4 and CYP2C19: 8 μL of DMSO solution was mixed with 12 μL of acetonitrile.
(§5) Preparation of 4×NADPH potassium phosphate solution: 66.7 mg of NADPH was added to 10 mL of K-buffer pH7.4. Preparation of 4× substrate potassium phosphate solution: the different substrates were prepared to 4-fold concentration test solutions with 10 mL 0.1M K-buffer according to the concentration requirements.
(§6) Preparation of 0.2 mg/mL human liver microsomes (HLM) solution: […] of 20 mg/mL human liver microsomes was added to […] K-buffer, and the solution was stored in ice bath until use.
(§7) 600 μL of 0.2 mg/mL HLM was added to a 96-well plate, followed by the addition of 3 μL of a 400-fold test compound solution; 200 μL of 0.2 mg/mL HLM was added to a 96-well plate, and 1 μL of the diluted positive control inhibitor solution was added. 30 μL of the compound solution mixed with human liver microsomes was added into a 96-well plate, and 15 μL of substrate solution was added then. The solutions obtained above, and the prepared NADPH solution were pre-incubated at 37° C. for 5 min. 15 μL of the pre-warmed NADPH solution was added to the reaction plate, mixed well, to initiate the reaction. The reaction plate was incubated at 37° C., for 5 minutes (3A4), for 10 minutes (1A2, 2C9, 2D6), for 45 minutes (2C19). At the end of the reaction, 120 μL of acetonitrile containing internal standard was added to quenched the reaction. Samples were vortexed for 10 min, centrifuged at 5594 g for 15 min, and prepared for LC-MS/MS analysis.

The target of the next series is T2, CYP2C19 (Homo sapiens, UniProt P33261).
T2 construct: Human liver microsomes (Corning, Cat #452161); tissue Corning 452161; host or cells: human liver microsomes
Particulars: pH 7.4, read-out: CYP inhibition rate (%) 2C19.
Text: as §1, §2, §3, §4, §5, §6, §7

For a further series, the target named is T3, CYP2C9 (Homo sapiens, UniProt P11712).
T3 construct: Human liver microsomes (Corning, Cat #452161); tissue Corning 452161; host or cells: human liver microsomes
Particulars: pH 7.4, read-out: CYP inhibition rate (%) 2C9.
Text: as §1, §2, §3, §4, §5, §6, §7

The target of a further series is T4, CYP2D6 (Homo sapiens, UniProt P10635).
T4 construct: Human liver microsomes (Corning, Cat #452161); tissue Corning 452161; host or cells: human liver microsomes
Particulars: pH 7.4, read-out: CYP inhibition rate (%) 2D6.
Text: as §1, §2, §3, §4, §5, §6, §7

The target in another series is T5, CYP3A4 (Homo sapiens, UniProt P08684).
T5 construct: Human liver microsomes (Corning, Cat #452161); tissue Corning 452161; host or cells: human liver microsomes
Text: as §1, §2, §3, §4, §5, §6, §7

Where [1] appears, read: pH 7.4, probe midazolam, substrate midazolam, read-out: CYP inhibition rate (%) CYP3A4 (midazolam).
The mark [2] stands for this setting: pH 7.4, probe testosterone, substrate testosterone, read-out: CYP inhibition rate (%) CYP3A4 (testosterone).

T2 sequence (P33261 whole entry): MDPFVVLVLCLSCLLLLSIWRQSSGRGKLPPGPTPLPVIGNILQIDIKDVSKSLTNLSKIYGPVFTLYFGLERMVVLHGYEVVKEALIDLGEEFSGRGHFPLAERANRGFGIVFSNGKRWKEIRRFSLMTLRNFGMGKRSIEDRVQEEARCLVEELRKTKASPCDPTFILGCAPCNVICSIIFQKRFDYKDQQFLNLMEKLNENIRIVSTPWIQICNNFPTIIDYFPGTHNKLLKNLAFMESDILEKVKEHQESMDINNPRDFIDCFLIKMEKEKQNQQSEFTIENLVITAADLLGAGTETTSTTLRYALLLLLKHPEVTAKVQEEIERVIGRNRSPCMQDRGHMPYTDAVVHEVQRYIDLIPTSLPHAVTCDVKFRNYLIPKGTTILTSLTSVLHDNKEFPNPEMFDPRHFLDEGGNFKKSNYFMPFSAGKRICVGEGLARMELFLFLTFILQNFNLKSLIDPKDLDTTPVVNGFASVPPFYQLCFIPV
T5 sequence (P08684 whole entry): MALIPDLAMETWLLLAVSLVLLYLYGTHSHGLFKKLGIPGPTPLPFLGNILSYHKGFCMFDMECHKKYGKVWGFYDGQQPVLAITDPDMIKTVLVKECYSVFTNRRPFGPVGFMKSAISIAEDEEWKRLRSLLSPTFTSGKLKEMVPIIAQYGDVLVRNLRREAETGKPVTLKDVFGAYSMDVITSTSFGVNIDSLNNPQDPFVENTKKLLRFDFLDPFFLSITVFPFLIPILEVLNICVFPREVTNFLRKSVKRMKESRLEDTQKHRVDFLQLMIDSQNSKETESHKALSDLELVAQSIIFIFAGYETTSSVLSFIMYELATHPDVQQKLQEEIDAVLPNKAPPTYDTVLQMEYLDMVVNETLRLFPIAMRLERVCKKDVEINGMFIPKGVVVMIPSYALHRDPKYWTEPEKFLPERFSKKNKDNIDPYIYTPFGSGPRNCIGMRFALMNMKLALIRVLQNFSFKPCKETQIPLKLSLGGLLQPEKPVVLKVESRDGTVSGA
T4 sequence (P10635 whole entry): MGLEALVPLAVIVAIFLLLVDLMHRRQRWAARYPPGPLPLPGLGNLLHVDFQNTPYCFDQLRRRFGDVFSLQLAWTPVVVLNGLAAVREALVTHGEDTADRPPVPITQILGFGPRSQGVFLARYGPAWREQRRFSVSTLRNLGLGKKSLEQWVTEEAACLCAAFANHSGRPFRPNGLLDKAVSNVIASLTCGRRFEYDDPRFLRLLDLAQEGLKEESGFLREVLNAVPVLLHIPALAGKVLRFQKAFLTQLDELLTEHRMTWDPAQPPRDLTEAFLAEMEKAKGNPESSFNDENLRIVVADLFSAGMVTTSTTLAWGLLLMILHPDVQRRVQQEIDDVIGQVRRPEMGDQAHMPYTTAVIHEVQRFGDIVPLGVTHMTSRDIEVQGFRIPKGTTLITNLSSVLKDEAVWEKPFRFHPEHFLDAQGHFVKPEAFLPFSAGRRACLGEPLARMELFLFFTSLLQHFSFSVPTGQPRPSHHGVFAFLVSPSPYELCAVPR
T3 sequence (P11712 whole entry): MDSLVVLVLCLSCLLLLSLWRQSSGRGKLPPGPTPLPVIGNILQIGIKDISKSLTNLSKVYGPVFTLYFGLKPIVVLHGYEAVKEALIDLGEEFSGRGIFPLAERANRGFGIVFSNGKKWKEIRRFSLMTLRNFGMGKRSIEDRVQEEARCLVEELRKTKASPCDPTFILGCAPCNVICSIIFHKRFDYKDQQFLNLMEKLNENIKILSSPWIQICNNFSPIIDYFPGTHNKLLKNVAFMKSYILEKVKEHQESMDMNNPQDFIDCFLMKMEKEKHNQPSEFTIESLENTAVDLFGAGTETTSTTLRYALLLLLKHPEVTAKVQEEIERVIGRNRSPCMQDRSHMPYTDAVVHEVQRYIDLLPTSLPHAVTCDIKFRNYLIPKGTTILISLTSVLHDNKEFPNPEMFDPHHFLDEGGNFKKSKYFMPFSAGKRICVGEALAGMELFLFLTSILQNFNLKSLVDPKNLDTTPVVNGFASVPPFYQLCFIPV

As for `C=CC(=O)N1CCN(c2c(C#N)cnc3c(F)c(-c4ccc(F)c5sc(N)nc45)c(Cl)cc23)C[C@H]1C` [Example 8, 4-((R)-4-acryloyl-3-methylpiperazin-1-yl)-7-(2-amino-7-fluorobenzo[d]thiazol-4-yl)-6-chloro-8-fluoroquinoline-3-carbonitrile], the values for the inhibition at 10 min, 10 µM on CYP1A2, on CYP2C9 and at CYP2D6 were 17.6%, 49.9% and 13.8%, respectively. Further, at CYP2C19, the inhibition at 45 min, 10 µM was found to be 31.2%. Also, the results for the inhibition at 5 min, 10 µM at CYP3A4 (setting [1]) and at CYP3A4 (setting [2]) were 22% and 16.9%, respectively.

On to `C=CC(=O)N1CCN(c2c(C#N)cnc3c(F)c(-c4ccc(F)c5sc(N)nc45)c(Cl)cc23)CC1` [Example 9, 4-(4-Acryloylpiperazin-1-yl)-7-(2-amino-7-fluorobenzo[d]thiazol-4-yl)-6-chloro-8-fluoroquinoline-3-carbonitrile], for which the inhibition at 10 min, 10 µM at CYP1A2 was 13.6%; at CYP2C9 it was 42.5%; at CYP2D6 it was -11.4%. The inhibition at 45 min, 10 µM on CYP2C19 stood at 34.9%. The inhibition at 5 min, 10 µM turned out to be 24% at CYP3A4 (setting [1]) and 30.9% at CYP3A4 (setting [2]).

As for `C=CC(=O)N1CCN(c2ncnc3c(F)c(-c4ccc(F)c5sc(N)nc45)c(Cl)cc23)CC1` [Ref. Comp. A, reference compound], the inhibition at 10 min, 10 µM was found to be 73% at CYP1A2, 52.4% on CYP2C9 and 32.6% on CYP2D6. For the same compound, at CYP2C19, the inhibition at 45 min, 10 µM amounted to 74.3%. Further, the inhibition at 5 min, 10 µM at CYP3A4 (setting [1]) was determined as 11.1%; on CYP3A4 (setting [2]) it was 10.9%.

On to `C=CC(=O)N1CCN(c2nc(=O)n(-c3c(C)ccnc3C(C)C)c3nc(-c4c(O)cccc4F)c(F)cc23)[C@@H](C)C1` (atropisomer, axis not shown) [AMG510, reference compound], for which the inhibition at 10 min, 10 µM at CYP1A2 turned out to be 10.3%; at CYP2C9 it was 26.2%; at CYP2D6, 23.7%. Besides, on CYP2C19, the inhibition at 45 min, 10 µM was 11.1%. Also, the inhibition at 5 min, 10 µM on CYP3A4 (setting [1]) was 63.7%; at CYP3A4 (setting [2]), 24.8%.
